Measurements as given in publication PMC6720883, “In Vitro Inhibitory Effects of APINACA on Human Major Cytochrome P450, UDP-Glucuronosyltransferase Enzymes, and Drug Transporters” (Molecules, 2019).
Like-named read-outs stand apart in the source and are kept apart here.

What was measured:
[1] = molecular target: T1, UGT1A9 (Homo sapiens, UniProt O60656); conditions: cited from earlier work
T1 sequence (O60656 26-530): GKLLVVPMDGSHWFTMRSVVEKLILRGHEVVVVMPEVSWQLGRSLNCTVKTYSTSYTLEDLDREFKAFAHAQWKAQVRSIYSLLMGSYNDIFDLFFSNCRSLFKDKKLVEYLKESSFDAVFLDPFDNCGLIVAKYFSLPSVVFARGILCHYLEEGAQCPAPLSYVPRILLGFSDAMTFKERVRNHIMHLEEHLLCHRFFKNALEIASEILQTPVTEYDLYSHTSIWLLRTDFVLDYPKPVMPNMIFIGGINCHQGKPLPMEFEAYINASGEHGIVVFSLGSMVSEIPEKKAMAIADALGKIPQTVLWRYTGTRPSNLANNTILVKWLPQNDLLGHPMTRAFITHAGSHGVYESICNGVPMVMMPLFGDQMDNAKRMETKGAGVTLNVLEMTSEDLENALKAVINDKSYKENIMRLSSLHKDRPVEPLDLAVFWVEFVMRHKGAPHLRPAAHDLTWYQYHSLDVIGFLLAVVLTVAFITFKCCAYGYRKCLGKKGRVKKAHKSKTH

[2] = molecular target: T2, BCRP (Homo sapiens, UniProt Q9UNQ0); experiment: B to A transport of [3-H]estrone-3-sulfate in LLC-PK1-BCRP cells; type: in vitro ADME; conditions: human, LLC-PK1-BCRP cell monolayers on filter membranes, probe [3H]estrone-3-sulfate (0.1 μM); LLC-PK1-BCRP cells; B to A transport of 0.1 μM [3-H]estrone-3-sulfate; read-out: IC50 for inhibition of BCRP transport
T2 sequence (Q9UNQ0 1-655): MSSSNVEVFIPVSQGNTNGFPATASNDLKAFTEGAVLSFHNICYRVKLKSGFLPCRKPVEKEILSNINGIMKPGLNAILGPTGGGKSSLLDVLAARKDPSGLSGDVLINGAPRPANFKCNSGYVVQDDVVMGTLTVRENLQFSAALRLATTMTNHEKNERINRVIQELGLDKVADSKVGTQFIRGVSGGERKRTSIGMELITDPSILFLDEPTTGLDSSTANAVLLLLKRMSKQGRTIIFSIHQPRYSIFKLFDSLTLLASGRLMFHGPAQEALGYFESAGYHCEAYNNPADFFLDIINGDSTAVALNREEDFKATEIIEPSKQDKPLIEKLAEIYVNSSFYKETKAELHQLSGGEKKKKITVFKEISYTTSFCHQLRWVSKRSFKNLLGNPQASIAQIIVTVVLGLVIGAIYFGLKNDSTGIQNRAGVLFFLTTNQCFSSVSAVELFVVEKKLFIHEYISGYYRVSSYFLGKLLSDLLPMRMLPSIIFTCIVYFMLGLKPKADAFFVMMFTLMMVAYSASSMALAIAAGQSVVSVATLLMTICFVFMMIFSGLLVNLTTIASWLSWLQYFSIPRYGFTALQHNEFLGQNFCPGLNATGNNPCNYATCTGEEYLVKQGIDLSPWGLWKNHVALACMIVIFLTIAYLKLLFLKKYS

[3] = read-out: Ki for inhibition of UGT1A9 activities, recombinant and human liver microsomal UGT1A9

Which Ki [1, 3] does the source give for `Cc1ccc([C@@H]2O[C@H](CO)[C@@H](O)[C@H](O)[C@H]2O)cc1Cc1ccc(-c2ccc(F)cc2)s1` [canagliflozin] here?
Its Ki is 1400 to 3000 nM.

Which Ki [1, 3] does the source give for `CCOc1ccc(Cc2cc([C@@H]3O[C@H](CO)[C@@H](O)[C@H](O)[C@H]3O)ccc2Cl)cc1` [dapagliflozin] here?
Its Ki is 11000 to 15000 nM.

For `CNC(=O)c1cc(Oc2ccc(NC(=O)Nc3ccc(Cl)c(C(F)(F)F)c3)c(F)c2)ccn1` [regorafenib], which Ki [1] is on record?
The Ki was 700 nM.

Which Ki [1, 3] does the source give for `CNC(=O)c1cc(Oc2ccc(NC(=O)Nc3ccc(Cl)c(C(F)(F)F)c3)cc2)ccn1` [sorafenib] here?
The Ki was 700 nM.

Which IC50 [2] does the source give for `O=C(O)c1cc(/N=N/c2ccc(S(=O)(=O)Nc3ccccn3)cc2)ccc1O` [sulfasalazine] here?
Its IC50 is 390 nM.
